# Measured values as given in ChEMBL document CHEMBL5543096 (J Med Chem, 2024).
# The source made the active and inactive calls. No cut-off for these calls is given here.
# How the values were obtained:
# Mus musculus [1] = assay: Antidepressant activity in Reserpine-induced depressive C57BL/6J mouse model assessed as decrease in immobility time at 0.3 mg/kg,ip administration measured after 30 mins by tail suspension test; format: functional, organism-based
# Mus musculus [2] = assay: Antidepressant activity in Reserpine-induced depressive C57BL/6J mouse model assessed as decrease in immobility time at 0.3 mg/kg,ip administration measured after 7 days by tail suspension test; format: functional, organism-based; conditions: time 7.0 day
# Mus musculus [3] = assay: Antidepressant activity in Reserpine-induced depressive C57BL/6J mouse model assessed as decrease in immobility time at 0.3 mg/kg,ip administration measured for 1 to 3 days by tail suspension test; format: functional, organism-based; conditions: time 1-3 day
# Mus musculus [4] = assay: Antidepressant activity in Reserpine-induced depressive C57BL/6J mouse model assessed as decrease in immobility time at 0.3 mg/kg,ip administration measured after 5 days by tail suspension test; format: functional, organism-based; conditions: time 5.0 day
# [5] = Toxicity in chronic restraint stress-induced depressive C57BL/6J mouse model assessed as decrease in percentage of spontaneous alternation at 1 mg/kg,ip administration by Y-maze test; format: organism-based; conditions: in vivo
# [6] = Toxicity in chronic restraint stress-induced depressive C57BL/6J mouse model assessed as decrease in percentage of spontaneous alternation at 2 mg/kg,ip administration by Y-maze test; format: organism-based; conditions: in vivo
# Mus musculus [7] = assay: Antidepressant activity in chronic restraint stress-induced depressive C57BL/6J mouse model assessed as increase in hippocampal BDNF mRNA expression at 0.3 mg/kg,ip administration measured after 8 hrs by qRT-PCR analysis; format: functional, organism-based
# Mus musculus [8] = assay: Antidepressant activity in Reserpine-induced depressive C57BL/6J mouse model assessed as decrease in immobility time at 0.1 to 0.3 mg/kg,ip administration measured after 30 mins by tail suspension test; format: functional, organism-based; conditions: dose 0.1-0.3 mg/kg
# Mus musculus [9] = assay: Antidepressant activity in Reserpine-induced depressive C57BL/6J mouse model assessed as decrease in immobility time at 0.1 to 1 mg/kg,ip administration measured after 7 days by tail suspension test; format: functional, organism-based; conditions: dose 0.1-1 mg/kg, time 7.0 day
SMILES,Activity (Mus musculus [1]),Activity (Mus musculus [2]),also measured
CN1[C@@H]2C[C@@H](OC(=O)C(F)(CO)CCCc3ccccc3)C[C@H]1[C@@H]1O[C@@H]12 (some centres not stated),inactive,inactive,
CN1[C@@H]2C[C@@H](OC(=O)C(F)(CCl)Cc3ccccc3)C[C@H]1[C@@H]1O[C@@H]12 (some centres not stated),inactive,inactive,
CCCCC(F)(CCl)C(=O)O[C@@H]1C[C@@H]2[C@H]3O[C@H]3[C@H](C1)N2C (some centres not stated),inactive,inactive,
CN1[C@@H]2C[C@@H](OC(=O)C(F)(CO)Cc3cccc4ccccc34)C[C@H]1[C@@H]1O[C@@H]12 (some centres not stated),,inactive,
C=CCC(F)(CO)C(=O)O[C@@H]1C[C@@H]2[C@H]3O[C@H]3[C@H](C1)N2C (some centres not stated),inactive,inactive,
Cc1ccc(S(=O)(=O)OCC(F)(C(=O)O[C@@H]2C[C@@H]3[C@H]4O[C@H]4[C@H](C2)N3C)c2ccccc2)cc1 (some centres not stated),inactive,inactive,
CN1[C@@H]2C[C@@H](OC(=O)C(F)(CO)CCc3ccccc3)C[C@H]1[C@@H]1O[C@@H]12 (some centres not stated),inactive,inactive,
Cc1ccc(S(=O)(=O)OCC(F)(Cc2ccccc2)C(=O)O[C@@H]2C[C@@H]3[C@H]4O[C@H]4[C@H](C2)N3C)cc1 (some centres not stated),inactive,inactive,
C=CCC(F)(CCl)C(=O)O[C@@H]1C[C@@H]2[C@H]3O[C@H]3[C@H](C1)N2C (some centres not stated),inactive,inactive,
CN1[C@@H]2C[C@@H](OC(=O)C(F)(CO)c3cccc(F)c3)C[C@H]1[C@@H]1O[C@@H]12 (some centres not stated),Active,inactive,
CN1[C@@H]2C[C@@H](OC(=O)C(F)(CBr)Cc3ccccc3)C[C@H]1[C@@H]1O[C@@H]12 (some centres not stated),inactive,inactive,
CN1[C@@H]2C[C@@H](OC(=O)C(F)(CO)c3ccccc3)C[C@H]1[C@@H]1O[C@@H]12 (some centres not stated),Active,Active,
CCCCC(F)(CO)C(=O)O[C@@H]1C[C@@H]2[C@H]3O[C@H]3[C@H](C1)N2C (some centres not stated),inactive,inactive,
CN1[C@@H]2C[C@@H](OC(=O)C(F)(CO)Cc3ccc(C(F)(F)F)cc3)C[C@H]1[C@@H]1O[C@@H]12 (some centres not stated),,inactive,
CN1[C@@H]2C[C@@H](OC(=O)C(F)(CO)Cc3ccccc3)C[C@H]1[C@@H]1O[C@@H]12 (some centres not stated),Active,inactive,
CN1[C@@H]2C[C@@H](OC(=O)C(F)(CCl)c3ccccc3)C[C@H]1[C@@H]1O[C@@H]12 (some centres not stated),inactive,inactive,
CN1[C@@H]2C[C@@H](OC(=O)C(F)(CO)c3ccc(F)cc3)C[C@H]1[C@@H]1O[C@@H]12 (some centres not stated),,inactive,
CN1[C@@H]2C[C@@H](OC(=O)[C@H](CO)c3ccccc3)C[C@H]1[C@@H]1O[C@@H]12 [SCOPOLAMINE],Active,inactive,Activity (Mus musculus [3]): Active; Activity (Mus musculus [4]): inactive; Activity [5]: Toxic; Activity [6]: Toxic; Activity (Mus musculus [7]): Active
CN1[C@@H]2C[C@@H](OC(=O)C(F)(CBr)c3ccccc3)C[C@H]1[C@@H]1O[C@@H]12 (some centres not stated),inactive,inactive,
CN1[C@@H]2C[C@@H](OC(=O)[C@](F)(CO)c3ccccc3)C[C@H]1[C@@H]1O[C@@H]12,,,Activity (Mus musculus [8]): Active; Activity (Mus musculus [9]): inactive
CN1[C@@H]2C[C@@H](OC(=O)C(F)(CO)Cc3ccccc3Br)C[C@H]1[C@@H]1O[C@@H]12 (some centres not stated),,inactive,
CN1[C@@H]2C[C@@H](OC(=O)C(F)c3ccccc3)C[C@H]1[C@@H]1O[C@@H]12 (some centres not stated),inactive,inactive,
CN1[C@@H]2C[C@@H](OC(=O)C(F)(CN=[N+]=[N-])Cc3ccccc3)C[C@H]1[C@@H]1O[C@@H]12 (some centres not stated),inactive,inactive,
CN1[C@@H]2CC[C@H]1C[C@@H](OC(=O)C(F)(CO)c1ccccc1)C2 (some centres not stated),inactive,inactive,
CN1[C@@H]2C[C@@H](OC(=O)C(F)(CI)c3ccccc3)C[C@H]1[C@@H]1O[C@@H]12 (some centres not stated),inactive,inactive,
CN1[C@@H]2C[C@@H](OC(=O)C(F)(CO)Cc3ccccc3F)C[C@H]1[C@@H]1O[C@@H]12 (some centres not stated),,inactive,
